From patent US10570122B2, “Compounds with anti-tumoral activity” (AB Science, priority 2015, dated 2020)

Assays:
HL60 = test: CellTiter-Blue cell-based survival/proliferation assay, HL60; conditions: Homo sapiens, HL-60, Leukemia cell line HL60, 48 h, read-out: Anti-tumoral activity (measured IC50) HL60
Outline: (§1)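 Tenfold compound dilutions (0–10 μM) were added to 1·10^4 cells/well. Plates incubated 48 h at 37 °C. CellTiter-Blue reduction (4 h, 37 °C) was read as fluorescence at 590 nm, background-corrected with a cell-free blank.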

HUT78 = test: CellTiter-Blue cell-based survival/proliferation assay, HUT78; conditions: Homo sapiens, Lymphoma cell line HUT78, 48 h, read-out: Anti-tumoral activity (measured IC50) HUT78
Outline: as §1

KARPAS299 = test: CellTiter-Blue cell-based survival/proliferation assay, KARPAS299; conditions: Homo sapiens, KARPAS-299, Lymphoma cell line KARPAS299, 48 h, read-out: Anti-tumoral activity (measured IC50) KARPAS299
Outline: as §1

REC1 = test: CellTiter-Blue cell-based survival/proliferation assay, REC1; conditions: Homo sapiens, Lymphoma cell line REC1, 48 h, read-out: Anti-tumoral activity (measured IC50) REC1
Outline: as §1

OPM2 = test: CellTiter-Blue cell-based survival/proliferation assay, OPM2; conditions: Homo sapiens, OPM-2, Myeloma cell line OPM2, 48 h, read-out: Anti-tumoral activity (measured IC50) OPM2
Outline: as §1

A375 = test: CellTiter-Blue cell-based survival/proliferation assay, A375; conditions: Homo sapiens, A-375; A375 melanoma cell line, 48 h
Outline: as §1

A4513 = test: CellTiter-Blue cell-based survival/proliferation assay, A4513; conditions: Homo sapiens; A4513 Ewing cell line, 48 h
Outline: as §1

A498 = test: CellTiter-Blue cell-based survival/proliferation assay, A498; conditions: Homo sapiens; A498 kidney tumor cell line, 48 h
Outline: as §1

A549 = test: CellTiter-Blue cell-based survival/proliferation assay, A549; conditions: Homo sapiens; A549 lung tumor cell line, 48 h
Outline: as §1

ACHN = test: CellTiter-Blue cell-based survival/proliferation assay, ACHN; conditions: Homo sapiens; ACHN kidney tumor cell line, 48 h
Outline: as §1

AGS = test: CellTiter-Blue cell-based survival/proliferation assay, AGS; conditions: Homo sapiens; AGS stomach tumor cell line, 48 h
Outline: as §1

BT20 = test: CellTiter-Blue cell-based survival/proliferation assay, BT20; conditions: Homo sapiens, BT-20; BT20 breast tumor cell line, 48 h
Outline: as §1

BXPC3 = test: CellTiter-Blue cell-based survival/proliferation assay, BXPC3; conditions: Homo sapiens, BXPC-3; BXPC3 pancreas tumor cell line, 48 h
Outline: as §1

CALU6 = test: CellTiter-Blue cell-based survival/proliferation assay, CALU6; conditions: Homo sapiens, Calu-6; CALU6 lung tumor cell line, 48 h
Outline: as §1

CLS354 = test: CellTiter-Blue cell-based survival/proliferation assay, CLS354; conditions: Homo sapiens, CLS-354; CLS354_4 head & neck tumor cell line, 48 h
Outline: as §1

DLD1 = test: CellTiter-Blue cell-based survival/proliferation assay, DLD1; conditions: Homo sapiens, DLD-1; DLD_1 colorectal tumor cell line, 48 h
Outline: as §1

DU145 = test: CellTiter-Blue cell-based survival/proliferation assay, DU145; conditions: Homo sapiens, DU-145; DU145 prostate tumor cell line, 48 h
Outline: as §1

H1299 = test: CellTiter-Blue cell-based survival/proliferation assay, H1299; conditions: Homo sapiens, NCI-H1299; H1299 lung tumor cell line, 48 h
Outline: as §1

HCT116 = test: CellTiter-Blue cell-based survival/proliferation assay, HCT116; conditions: Homo sapiens, HCT-116; HCT116 colorectal tumor cell line, 48 h
Outline: as §1

HEP2 = test: CellTiter-Blue cell-based survival/proliferation assay, HEP2; conditions: Homo sapiens, HEp-2; HEP2 head & neck tumor cell line, 48 h
Outline: as §1

HEPG2 = test: CellTiter-Blue cell-based survival/proliferation assay, HEPG2; conditions: Homo sapiens; HEPG2 liver tumor cell line, 48 h
Outline: as §1

HGC27 = test: CellTiter-Blue cell-based survival/proliferation assay, HGC27; conditions: Homo sapiens, HGC-27; HGC27 stomach tumor cell line, 48 h
Outline: as §1

MDAMB231 = test: CellTiter-Blue cell-based survival/proliferation assay, MDAMB231; conditions: Homo sapiens, MDA-MB-231; MDAMB231 breast tumor cell line, 48 h
Outline: as §1

MELWO = test: CellTiter-Blue cell-based survival/proliferation assay, MELWO; conditions: Homo sapiens; MEL_WO melanoma cell line, 48 h
Outline: as §1

MESSA = test: CellTiter-Blue cell-based survival/proliferation assay, MESSA; conditions: Homo sapiens, MES-SA; MESSA ovary tumor cell line, 48 h
Outline: as §1

PANC1 = test: CellTiter-Blue cell-based survival/proliferation assay, PANC1; conditions: Homo sapiens, PANC-1; PANC_1 pancreas tumor cell line, 48 h
Outline: as §1

PC3 = test: CellTiter-Blue cell-based survival/proliferation assay, PC3; conditions: Homo sapiens, PC-3; PC3 prostate tumor cell line, 48 h
Outline: as §1

PLCPRF5 = test: CellTiter-Blue cell-based survival/proliferation assay, PLCPRF5; conditions: Homo sapiens, PLC-PRF-5; PLC_PRF5 liver tumor cell line, 48 h
Outline: as §1

SW579 = test: CellTiter-Blue cell-based survival/proliferation assay, SW579; conditions: Homo sapiens; SW579 head & neck tumor cell line, 48 h
Outline: as §1

TOV112D = test: CellTiter-Blue cell-based survival/proliferation assay, TOV112D; conditions: Homo sapiens; TOV112D ovary tumor cell line, 48 h
Outline: as §1

U118 = test: CellTiter-Blue cell-based survival/proliferation assay, U118; conditions: Homo sapiens; U118 glioblastoma cell line, 48 h
Outline: as §1

U2OS = test: CellTiter-Blue cell-based survival/proliferation assay, U2OS; conditions: Homo sapiens; U2OS osteosarcoma cell line, 48 h
Outline: as §1

U87MG = test: CellTiter-Blue cell-based survival/proliferation assay, U87MG; conditions: Homo sapiens, U-87 MG; U87_MG glioblastoma cell line, 48 h
Outline: as §1

| SMILES | IC50 (HL60) | IC50 (HUT78) | IC50 (KARPAS299) | IC50 (REC1) | IC50 (OPM2) | IC50 (A375) | IC50 (A4513) | IC50 (A498) | IC50 (A549) | IC50 (ACHN) | IC50 (AGS) | IC50 (BT20) | IC50 (BXPC3) | IC50 (CALU6) | IC50 (CLS354) | IC50 (DLD1) | IC50 (DU145) | IC50 (H1299) | IC50 (HCT116) | IC50 (HEP2) | also measured |
| --- | --- | --- | --- | --- | --- | --- | --- | --- | --- | --- | --- | --- | --- | --- | --- | --- | --- | --- | --- | --- | --- |
| Cc1ccc(CO)cc1Nc1nc(-c2ccc(-n3cccn3)cc2)cs1 [Example 016, {4-Methyl-3-[4-(4-pyrazol-1-yl-phenyl)-thiazol-2-ylamino]-phenyl}-methanol] | > 1 µM | > 1 µM | > 1 µM | > 1 µM | > 1 µM | > 1 µM | > 1 µM | > 1 µM | > 1 µM | > 1 µM | > 1 µM | > 1 µM | > 1 µM | > 1 µM | > 1 µM | > 1 µM | > 1 µM | > 1 µM | > 1 µM | > 1 µM | IC50 (HEPG2): > 1 µM; IC50 (HGC27): > 1 µM; IC50 (MDAMB231): > 1 µM; IC50 (MELWO): > 1 µM; IC50 (MESSA): > 1 µM; IC50 (PANC1): > 1 µM; IC50 (PC3): > 1 µM; IC50 (PLCPRF5): > 1 µM; IC50 (SW579): > 1 µM; IC50 (TOV112D): > 1 µM; IC50 (U118): > 1 µM; IC50 (U2OS): > 1 µM; IC50 (U87MG): > 1 µM |
| CCOCc1ccc(C)c(Nc2nc(-c3ccc(-n4ccnc4)cc3)cs2)c1 [Example 017, (5-Ethoxymethyl-2-methyl-phenyl)-[4-(4-imidazol-1-yl-phenyl)-thiazol-2-yl]-amine] | > 1 µM | > 1 µM | > 1 µM | > 1 µM | > 1 µM | > 1 µM | > 1 µM | > 1 µM | > 1 µM | > 1 µM | > 1 µM | > 1 µM | > 1 µM | > 1 µM | > 1 µM | > 1 µM | > 1 µM | > 1 µM | > 1 µM | > 1 µM | IC50 (HEPG2): > 1 µM; IC50 (HGC27): > 1 µM; IC50 (MDAMB231): > 1 µM; IC50 (MELWO): > 1 µM; IC50 (MESSA): > 1 µM; IC50 (PANC1): > 1 µM; IC50 (PC3): > 1 µM; IC50 (PLCPRF5): > 1 µM; IC50 (SW579): > 1 µM; IC50 (TOV112D): > 1 µM; IC50 (U118): > 1 µM; IC50 (U2OS): > 1 µM; IC50 (U87MG): > 1 µM |
| CCOCc1cc(C)cc(Nc2nc(-c3ccc(N4CCNC4=O)cc3)cs2)c1 [Example 018, 1-{4-[2-(3-Ethoxymethyl-(5-methyl-phenylamino))-thiazol-4-yl]-phenyl}-imidazolidin-2-one] | ≤ 0.1 µM | ≤ 0.1 µM | ≤ 0.1 µM | ≤ 0.1 µM | ≤ 0.1 µM | ≤ 0.1 µM | ≤ 0.1 µM | 0.5 to 1 µM | ≤ 0.1 µM | 0.5 to 1 µM | > 1 µM | > 1 µM | > 1 µM | > 1 µM | ≤ 0.1 µM | > 1 µM | > 1 µM | > 1 µM | 0.1 to 0.5 µM | ≤ 0.1 µM | IC50 (HEPG2): > 1 µM; IC50 (HGC27): 0.5 to 1 µM; IC50 (MDAMB231): > 1 µM; IC50 (MELWO): > 1 µM; IC50 (MESSA): > 1 µM; IC50 (PANC1): > 1 µM; IC50 (PC3): > 1 µM; IC50 (PLCPRF5): > 1 µM; IC50 (SW579): > 1 µM; IC50 (TOV112D): ≤ 0.1 µM; IC50 (U118): > 1 µM; IC50 (U2OS): 0.1 to 0.5 µM; IC50 (U87MG): > 1 µM |
